According to ChEMBL document CHEMBL3867456, “Vetiverianines A, B, and C: Sesquiterpenoids from Vetiveria zizanioides Roots” (J Nat Prod, 2016):

Experiment: Cytotoxicity against human HL60 cells assessed as cell growth inhibition after 72 hrs by MTT assay
Type: functional, cell-based
Settings: HL-60, 72 h

Question: For C[C@@H]1CCC=C2CC[C@]3(C[C@]21C)O[C@]3(C)CO, which IC50 is on record?
Answer: The IC50 was 57.7 µM.

Question: Which IC50 does the source give for COc1cc([C@@H]2c3cc4c(cc3[C@@H](O[C@@H]3O[C@@H]5CO[C@@H](C)O[C@H]5[C@H](O)[C@H]3O)[C@H]3COC(=O)[C@H]23)OCO4)cc(OC)c1O [ETOPOSIDE] here?
Answer: The IC50 was 0.3 µM.
